Reference: ChEMBL document CHEMBL1154859, “Structure of aldehyde reductase in ternary complex with a 5-arylidene-2,4-thiazolidinedione aldose reductase inhibitor” (Eur J Med Chem, 2010)

How the values were obtained:
[1] = Ratio of IC50 for pig ALR1 to IC50 for calf ALR2
[2] = molecular target: T1, Aldo-keto reductase family 1 member A1 (Sus scrofa, UniProt P50578); test: Inhibition of pig ALR1 assessed as decrease in NADPH absorbance by spectrophotometry
T1 sequence (P50578 whole entry): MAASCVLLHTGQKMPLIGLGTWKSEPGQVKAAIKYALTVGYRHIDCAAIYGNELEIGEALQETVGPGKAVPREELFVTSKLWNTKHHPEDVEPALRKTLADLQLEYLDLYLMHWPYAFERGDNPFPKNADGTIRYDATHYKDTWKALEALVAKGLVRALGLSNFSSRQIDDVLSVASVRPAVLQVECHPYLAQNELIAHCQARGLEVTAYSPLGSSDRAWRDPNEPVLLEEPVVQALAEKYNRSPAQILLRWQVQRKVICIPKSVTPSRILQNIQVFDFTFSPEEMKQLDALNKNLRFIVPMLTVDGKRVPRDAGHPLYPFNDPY

Ratio IC50 [1]: 56 | IC50 [2]: 37 µM
SMILES: COc1ccc(/C=C2\SC(=O)N(CC(=O)O)C2=O)cc1O
